The source of these data is US20260357266A1, “COMPOSITION FOR KILLING A THERAPY-INDUCED SENESCENCE (TIS) CELLS AND USES THEREOF” (AJOU UNIVERSITY INDUSTRY-ACADEMIC COOPERATION FOUNDATION, priority 2022, published 2026).

Data set [1] concerns senescent cell types, including senescent cancer cells. The settings on record: literature (Aging Cell 15, 428-435 (2016); Nat. Med. 22, 78-83 (2016)); cited from earlier work.
Data set [2] has as its system MCF7 control cells and TIS cells. Briefly: CCK8 assay and microscopy, senolytic effect on control and therapy-induced senescent (TIS) MCF7 cells. The data set is classed as cell-based. The conditions noted are these: for cell viability, TIS group compared to control group: CCK8, MCF7, FIG. 3b. The method, then:
FIGS. 3d and 3e show the results of CCK8 assay and microscopy performed to evaluate the cell killing effect of SGI-1776 after treating MCF7 cells (Ctrl and TIS) with another PIM1 kinase inhibitor, SGI-1776 (Selleckhem, Catalog No. S2198, CAS 1025065-69-3).
Therapy-induced senescent breast cancer cells were treated with the FDA-approved inhibitors (Table 1) for the 23 genes finally selected in Example 2, the senescent cell-selective cell division inhibitory effect and senolytic effect of the drugs were evaluated by CCK8 assay (D-Plus CCK, cell viability assay kit, Cat CCK-3000, Dong-In LS) (FIG. 3A). In this case, for the control group (cancer cells without therapy-induced senescence), the measurement was made after treatment with the inhibitor at the indicated concentration for 48 hours, and for the therapy-induced senescent cell group, the cancer cells were induced to senescence by treatment with adriamycin for 48 hours as described in Example 1, and then treated with the indicator at the indicated concentration for 48 hours while replacing the culture medium, the inhibitor was treated at the indicated concentration for 48 hours, and then the measurement was made.
In general terms: Formazan colour is commonly taken as a measure of viable cells.

In data set [3] the test system is p21. Briefly: p21 mRNA expression after therapy-induced senescence by adriamycin. The data set is classed as cell-based. The conditions noted are these: 100 nM adriamycin for 48 h, then medium replaced and cultured 5 to 7 days; MCF7, ZR75-1, Hs578T, MDA-MB-231. The protocol: (§1) To generate therapy-induced senescent tumor cells, breast cancer cell lines with contrasting characteristics (MCF7 and ZR75-1, which are female hormone receptor-positive but relatively less malignant, and Hs578T and MDA-MB-231, which are hormone receptor- and HER2 receptor-negative triple-negative breast cancer cell lines and are relatively more aggressive) were each treated with 100 nM of adriamycin (Selleckhem, Catalog No. S1208, CAS 25316-40-9). After 48 hours, the cell culture medium was replaced and the cells were cultured for 5 to 7 days, thereby generating therapy-induced senescent tumor cells.

Data set [4] concerns breast cancer cell lines (MCF7, ZR75-1, Hs578T, and MDA-MB-231). Briefly: Cell size and SA-β-gal staining after therapy-induced senescence by adriamycin. The data set is classed as cell-based. The settings on record: 100 nM adriamycin for 48 h, then medium replaced and cultured 5 to 7 days. The method, then: as §1
Data set [5] has as its system PIM-1 kinase. Briefly: PIM-1 kinase mRNA/protein expression after therapy-induced senescence. The format is cell-based. The conditions noted are these: 10 μM cisplatin; MCF7, MDA-MB 231, MKN1, HSC4, SNU869. The source says:
In addition to breast cancer cell lines (MCF7 and MDA-MB231), gastric cancer (SNU601, MKN1, and MKN74), colon cancer (SW480, and Hct116), head and neck cancer (HSC4), cervical cancer (HeLa S3), cholangiocarcinoma (SNU308, SNU478, and SNU1196), pancreatic adenocarcinoma (BxPC3), and prostate cancer (PC3) cell lines were induced to senescence by treatment in the same manner as in Example 1, thereby obtaining therapy-induced senescent cells.
(§2) In addition, in order to examine whether therapy-induced senescence (TIS) occurs even when using anticancer agents other than adriamycin, various cancer cell lines (MCF7, MDA-MB 231, MKN1, HSC4, and SNU869) were treated with 10 μM of cisplatin (Selleckhem, Catalog No. S1166 CAS 15663-27-1).

Data set [6] concerns various cancer cell lines (MCF7, MDA-MB 231, MKN1, HSC4, and SNU869). Briefly: Therapy-induced senescence by cisplatin in various cancer cell lines. The data set is classed as cell-based. The settings on record: 10 μM cisplatin; MCF7, MDA-MB 231, MKN1, HSC4, SNU869. The protocol: as §2
In data set [7] the test system is SNU601, HSC4, and SW480 cells (control and TIS). The experiment in a line: CCK8 assay and microscopy, senolytic effect on control and TIS gastric, head and neck and colon cancer cells. The data set is classed as cell-based. The conditions noted are these: FIG. 5. The method, then: FIGS. 5a and 5b show the results of microscopy and CCK8 assay performed to evaluate the cell killing effect of PIM 1/2 inhibitor VI on control (Ctrl) cells and therapy-induced senescent (TIS) cells after treating cancer cell lines (HSC4: head and neck cancer, SNU601: gastric cancer, and SW480: colon cancer) with PIM 1/2 inhibitor VI.
Therapy-induced senescent breast cancer cells were treated with the FDA-approved inhibitors (Table 1) for the 23 genes finally selected in Example 2, the senescent cell-selective cell division inhibitory effect and senolytic effect of the drugs were evaluated by CCK8 assay (D-Plus CCK, cell viability assay kit, Cat CCK-3000, Dong-In LS) (FIG. 3A). […]
In order to evaluate the senolytic effect of a Pim-1 kinase inhibitor on gastric cancer (SNU601), head and neck cancer (HSC4), and colon cancer (SW480) cell lines induced to senescence by treatment, the concentration-dependent senolytic effect of the Pim-1 kinase inhibitor was evaluated in the same manner as described in Example 3.

In the case of `CC1(C)CCC(c2ccc(Cl)cc2)=C(CN2CCN(c3ccc(C(=O)NS(=O)(=O)c4ccc(N[C@H](CCN5CCOCC5)CSc5ccccc5)c(S(=O)(=O)C(F)(F)F)c4)cc3)CC2)C1` [ABT-263], the “elimination of senescent cell types” value in data set [1] is listed as “able to effectively eliminate a wide range of senescent cell types, including senescent cancer cells”. In data set [2], the “cell viability, TIS group compared to control group” value was “significantly inhibited in a therapy-induced senescent cell group compared to a control group”. Moreover, in data set [2] (FIGS. 3B and 3C), the “killing effect on both control and TIS cells” value was “almost complete killing effect on both the control and TIS cells”. For the same molecule, the “killing effect, control vs TIS cells” value in data set [2] (FIGS. 3B and 3C, difference between control and TIS cells) was “significant difference between the killing effect on the control cell and the killing effect on the TIS cells”.

In the case of `CN1CCC(CNc2ccc3ncc(-c4cccc(OC(F)(F)F)c4)n3n2)CC1` [SGI-1776], in data set [2] (FIG. 3D, MCF7), the “cytotoxicity to TIS cells compared to control cells” value was “high cytotoxicity to the TIS cells compared to the control cells”.

Regarding `COc1cccc2c1C(=O)c1c(O)c3c(c(O)c1C2=O)C[C@@](O)(C(=O)CO)C[C@@H]3O[C@H]1C[C@H](N)[C@H](O)[C@H](C)O1` [adriamycin], in data set [3], the “mRNA expression of p21” value was “increase significantly in each cell line”. In data set [4], the cell size result is listed as “the cell size of each breast cancer cell line increased” and the “number of cells positive to SA-b-gal” value is reported as “the number of cells positive to SA-b-gal, a senescence marker, increased”.

Regarding `N.N.[Cl][Pt][Cl]` [cisplatin], the “mRNA expression of the PIM-1 kinase gene” value in data set [5] is on record as “significantly increased”. The “occurrence of therapy-induced senescence (TIS)” value in data set [6] is “therapy-induced senescence (TIS) occurred”.

For `CCCOc1ccc(/C=C2\SC(=O)NC2=O)cc1` [PIM1/2 kinase inhibitor VI], the “cell viability, TIS group compared to control group” value in data set [2] was “significantly inhibited in a therapy-induced senescent cell group compared to a control group”. Further, the “selective senolytic effect on therapy-induced senescent tumor cells” value in data set [2] (CCK8, inhibitor 48 h, TIS by adriamycin vs control, FIG. 3A) is on record as “exhibited a selective senolytic effect on the therapy-induced senescent tumor cells”. The “killing effect on TIS cells” value in data set [2] (FIGS. 3B and 3C, TIS cells) is listed as “effectively killed the TIS cells”. Moreover, the “cell growth and killing of control cells” value in data set [2] (FIGS. 3B and 3C, control cells, high concentrations) is reported as “inhibited cell growth in the control cells at high concentrations but hardly killed the control cells”. Also, the “senolytic effect on senescent cells compared with ABT-263” value in data set [2] (FIGS. 3B and 3C, versus ABT-263) is on record as “significantly superior to that of ABT-263”. Moreover, the “killing effect on therapy-induced senescent tumor cells compared to normal tumor cells” value in data set [2] (summary statement, tumor cells induced to senescence by a chemotherapeutic agent) is given as “a significant killing effect was observed on the therapy-induced senescent tumor cells compared to normal tumor cells”. In data set [7] (SNU601, HSC4, SW480 TIS cells), the “killing effect on therapy-induced senescent cancer cells” value is “significant killing effect on the therapy-induced senescent cancer cells”. Besides, the “killing effect on control cells” value in data set [7] (SNU601, HSC4, SW480 control cells) is listed as “no significant killing effect on the control cells”.
